BindingDB's records for doi:10.1021/jm070299x (Bristol Myers Squibb, 2007)

Target: Inosine-5'-monophosphate dehydrogenase 2 (Homo sapiens, UniProt P12268)
Assay: IMPDH2 Enzyme Inhibition and Human T-Lymphoblast (CEM) Proliferation Inhibition Assays
Details: pH 8; 25 °C
Protocol: Inhibition assays were performed using recombinant human IMPDH type 2 and varying concentrations of inhibitor. The production of NADH was monitored by following changes in absorbance at 340 nm. […] The in vivo activities of compounds were also evaluated the inhibition of T-cell proliferation in CEM lymphoblast cells. The EC50/IC50 values were calculated using a four-parameter logistic plot.

Row | Structure (SMILES) | IC50 [nM]
1 | CC(C)(NC(=O)c1ccc2c(=O)c3ccccc3[nH]c2c1)c1ccccn1 [9-oxo-N-[2-(pyridin-2-yl)propan-2-yl]-9,10-dihydroacridine-3-carboxamide] | 2200
2 | COc1cc(C(C)(C)NC(=O)c2cc3[nH]c4ccccc4c(=O)c3cc2F)cnc1N1CCOCC1 [2-fluoro-N-{2-[5-methoxy-6-(morpholin-4-yl)pyridin-3-yl]propan-2-yl}-9-oxo-9,10-dihydroacridine-3-carboxamide] | 810
3 | CC(C)(C)NC(=O)c1ccc2c(=O)c3ccccc3[nH]c2c1 [N-tert-butyl-9-oxo-9,10-dihydroacridine-3-carboxamide] | 3300
4 | CC(C)(NC(=O)c1cc2[nH]c3ccccc3c(=O)c2cc1F)c1cnc2c(c1)OCCN2 [2-fluoro-9-oxo-N-(2-{2H,3H,4H-pyrido[3,2-b][1,4]oxazin-7-yl}propan-2-yl)-9,10-dihydroacridine-3-carboxamide] | 920
5 | CCN1CCN(c2ccc(C(C)(C)NC(=O)c3cc4[nH]c5ccccc5c(=O)c4cc3F)cn2)CC1 [Acridone-Based Inhibitor, 4m] | 770
6 | CC(C)(NC(=O)c1ccc2c(=O)c3ccccc3[nH]c2c1)c1cccnc1 [9-oxo-N-[2-(pyridin-3-yl)propan-2-yl]-9,10-dihydroacridine-3-carboxamide] | 2200
7 | Cc1cc(C(C)(C)NC(=O)c2cc3[nH]c4ccccc4c(=O)c3cc2F)cnc1N1CCOCC1 [2-fluoro-N-{2-[5-methyl-6-(morpholin-4-yl)pyridin-3-yl]propan-2-yl}-9-oxo-9,10-dihydroacridine-3-carboxamide] | 870
8 | CC(C)(NC(=O)c1cc2[nH]c3ccccc3c(=O)c2cc1F)c1ccccn1 [2-fluoro-9-oxo-N-[2-(pyridin-2-yl)propan-2-yl]-9,10-dihydroacridine-3-carboxamide] | 1000
9 | CCOC(=O)c1ccc2c(=O)c3ccccc3[nH]c2c1 [ethyl 9-oxo-9,10-dihydroacridine-3-carboxylate] | > 10000
10 | CC(C)(NC(=O)c1cc2[nH]c3ccccc3c(=O)c2cc1F)c1ccc(N2CCOCC2)nc1 [2-fluoro-N-{2-[6-(morpholin-4-yl)pyridin-3-yl]propan-2-yl}-9-oxo-9,10-dihydroacridine-3-carboxamide] | 660
11 | CC(C)(NC(=O)c1ccc2c(=O)c3ccccc3[nH]c2c1)c1ccccc1 [9-oxo-N-(2-phenylpropan-2-yl)-9,10-dihydroacridine-3-carboxamide] | 2100
12 | CC(C)(NC(=O)c1ccc2c(=O)c3ccccc3[nH]c2c1)c1ccncc1 [9-oxo-N-[2-(pyridin-4-yl)propan-2-yl]-9,10-dihydroacridine-3-carboxamide] | 2300
13 | CN(C)c1cc(C(C)(C)NC(=O)c2cc3[nH]c4ccccc4c(=O)c3cc2F)ccn1 [N-{2-[2-(dimethylamino)pyridin-4-yl]propan-2-yl}-2-fluoro-9-oxo-9,10-dihydroacridine-3-carboxamide] | 640

The next lines start with the values.

Row | IC50 [nM] | Structure (SMILES)
14 | 830 | CC(C)(NC(=O)c1cc2[nH]c3ccccc3c(=O)c2cc1F)c1ccccc1 [2-fluoro-9-oxo-N-(2-phenylpropan-2-yl)-9,10-dihydroacridine-3-carboxamide]
15 | 480 | CC(C)(NC(=O)c1cc2[nH]c3ccccc3c(=O)c2cc1F)c1ccc(S(C)(=O)=O)cc1 [2-fluoro-N-[2-(4-methanesulfonylphenyl)propan-2-yl]-9-oxo-9,10-dihydroacridine-3-carboxamide]
16 | 580 | CC(C)(NC(=O)c1cc2[nH]c3ccccc3c(=O)c2cc1F)c1cccc(S(C)(=O)=O)c1 [2-fluoro-N-[2-(3-methanesulfonylphenyl)propan-2-yl]-9-oxo-9,10-dihydroacridine-3-carboxamide]
17 | 750 | Cc1ccc(C(C)(C)NC(=O)c2cc3[nH]c4ccccc4c(=O)c3cc2F)cn1 [2-fluoro-N-[2-(6-methylpyridin-3-yl)propan-2-yl]-9-oxo-9,10-dihydroacridine-3-carboxamide]
18 | 850 | CN(C)c1ccc(C(C)(C)NC(=O)c2cc3[nH]c4ccccc4c(=O)c3cc2F)cn1 [N-{2-[6-(dimethylamino)pyridin-3-yl]propan-2-yl}-2-fluoro-9-oxo-9,10-dihydroacridine-3-carboxamide]
19 | 660 | CN(C)S(=O)(=O)c1ccc(C(C)(C)NC(=O)c2cc3[nH]c4ccccc4c(=O)c3cc2F)cc1 [N-{2-[4-(dimethylsulfamoyl)phenyl]propan-2-yl}-2-fluoro-9-oxo-9,10-dihydroacridine-3-carboxamide]
20 | 420 | CC(C)(NC(=O)c1cc2[nH]c3ccccc3c(=O)c2cc1F)c1cccnc1 [2-fluoro-9-oxo-N-[2-(pyridin-3-yl)propan-2-yl]-9,10-dihydroacridine-3-carboxamide]
21 | 380 | CN(C)S(=O)(=O)c1cccc(C(C)(C)NC(=O)c2cc3[nH]c4ccccc4c(=O)c3cc2F)c1 [N-{2-[3-(dimethylsulfamoyl)phenyl]propan-2-yl}-2-fluoro-9-oxo-9,10-dihydroacridine-3-carboxamide]
22 | 560 | CN(C)CCOc1ccc(C(C)(C)NC(=O)c2cc3[nH]c4ccccc4c(=O)c3cc2F)cc1 [N-(2-{4-[2-(dimethylamino)ethoxy]phenyl}propan-2-yl)-2-fluoro-9-oxo-9,10-dihydroacridine-3-carboxamide]

Same assay, conditions: pH 8; 25 °C; read-out: IC50

Row | IC50 [nM] | Structure (SMILES)
23 | 59 | CCOC(=O)c1ccc2c(=O)c3ccccc3[nH]c2c1 [ethyl 9-oxo-9,10-dihydroacridine-3-carboxylate]
